From ChEMBL document CHEMBL4823303, “Discovery of Small Molecule Entry Inhibitors Targeting the Fusion Peptide of SARS-CoV-2 Spike Protein” (ACS Med Chem Lett, 2021) come the findings set out here.

Data set [1] concerns SARS-CoV-2. The data set is described as follows: microbe, parasite or virus in culture. The settings on record: Severe acute respiratory syndrome coronavirus 2, Vero C1008, 72 h. The class given is functional, organism-based, Vero E6.
Data set [2] relates to SARS-CoV-2. The data set is described as follows: Antiviral activity against pseudovirus SARS-CoV-2 spike protein infected in HEK293 cells expressing ACE2 assessed as reduction in pseudotyped particle entry incubated for 48 hrs incubation by luminescence assay relative to control. The class given is functional, Severe acute respiratory syndrome coronavirus 2.
Data set [3] in a line: Cytotoxicity against HEK293 cells expressing ACE2 cells assessed as reduction in cell viability relative to control. The settings on record: human.
The test system of data set [4] is Vesicular stomatitis virus. The data set is described as follows: microbe, parasite or virus in culture. In kind it is functional, organism-based.
The next data set has as its system Vero C1008. The data set is described as follows: Cytotoxicity against African green monkey Vero E6 cells expressing ACE2 cells assessed as reduction in cell viability. The settings on record: Chlorocebus sabaeus.
For a further data set, the system named is HEK293. Kind of data set: Cytotoxicity against HEK293 cells expressing ACE2 cells assessed as reduction in cell viability. The settings on record: Homo sapiens.
The nature of data set [5]: Cytotoxicity against African green monkey Vero E6 cells expressing ACE2 cells assessed as reduction in cell viability relative to control. The settings on record: chlorocebus sabaeus.
For data set [6], the system named is SARS-CoV-2. The data set is described as follows: Antiviral activity against pseudovirus SARS-CoV-2 spike protein infected in HEK293 cells expressing ACE2 assessed as reduction in pseudotyped particle entry incubated for 48 hrs incubation by luminescence assay. The class given is functional, organism-based. Particulars: Severe acute respiratory syndrome coronavirus 2, HEK293, 48 h; call rule not given here.

The subject of data set [7] is SARS-CoV-2. The class given is functional, Severe acute respiratory syndrome coronavirus 2, Vero E6. Particulars: time 72 hrs.
For a further data set, the system named is SARS-CoV. The data set is described as follows: microbe, parasite or virus in culture. The class given is functional, organism-based. Particulars: Severe acute respiratory syndrome-related coronavirus, Huh-7, 24 h.
The mark [8] stands for this setting: Vesicular stomatitis virus, read-out: IC50.

As to `CC(Nc1nc(N2CCOCC2)nc2ccccc12)c1ccccc1` (configuration not stated), the IC50 with SARS-CoV-2 [1] is above 20 µM; in [4] (setting [8]) it was above 57.5 µM; in the data set on Vero C1008 it was above 20 µM; in the data set with HEK293, above 57.5 µM; in the data set on SARS-CoV-2 [6], 22.4 µM. In addition, in the data set on SARS-CoV-2 [2], the Efficacy amounted to 94.1%. Further, the Emax in data set [3] stood at 25.1%; in [5], 23%.

As to `C[C@H](Nc1nc(N2CCNCC2)nc2ccccc12)c1ccccc1`, the Efficacy in the data set on SARS-CoV-2 [2] amounted to 94.3%; in the data set on SARS-CoV-2 [7], 87.8%. Further, the Emax in [3] and in data set [5] was 0% each time. The IC50 is above 57.5 µM in data set [4] (setting [8]), above 20 µM with Vero C1008, above 57.5 µM in the data set on HEK293 and 15.8 µM in the data set with SARS-CoV-2 [6].

`CC(Nc1nc(N2CCC(=O)CC2)nc2ccccc12)c1ccccc1` (configuration not stated): the IC50 in the data set with SARS-CoV-2 [1] was 13 µM; in data set [4] (setting [8]), above 57.5 µM; in the data set with HEK293, above 57.5 µM; with SARS-CoV-2 [6] it was 31.6 µM. The results for the Efficacy in the data set with SARS-CoV-2 [2] and with SARS-CoV-2 [7] were 100% and 48.5%, respectively. Moreover, the Emax in [3] and in data set [5] was 0% each time.

Regarding `CC(Nc1nc(N2CCNCC2)nc2ccccc12)c1c(F)cccc1F` (configuration not stated), the IC50 in the data set on SARS-CoV-2 [1] is 14.1 µM; in [4] (setting [8]), above 57.5 µM; in the data set with HEK293 it was above 57.5 µM; with SARS-CoV-2 [6], 22.4 µM; with SARS-CoV, 1650 nM. Further, the Efficacy with SARS-CoV-2 [2] is 88.9%; with SARS-CoV-2 [7] it was 79.9%. Also, the Emax came out at 0% in data set [3] and 12.8% in [5].

With `CC(Nc1nc(N2CCNCC2)nc2cc(Br)ccc12)c1ccccc1` (configuration not stated), the IC50 was found to be 7.94 µM in the data set on SARS-CoV-2 [1]; 7.94 µM in data set [4] (setting [8]); 14.1 µM in the data set on Vero C1008; 39.8 µM in the data set with HEK293; 8.91 µM with SARS-CoV-2 [6]. Besides, the Efficacy with SARS-CoV-2 [2] was determined as 97.1%; with SARS-CoV-2 [7], 139.9%. The Emax is 72.1% in data set [3] and 91.5% in data set [5].

As to `CC(Nc1nc(N2CCNCC2)nc2ccc(F)cc12)c1ccccc1` (configuration not stated), the IC50 is 7.94 µM with SARS-CoV-2 [1]; above 57.5 µM in data set [4] (setting [8]); above 20 µM in the data set with Vero C1008; above 57.5 µM with HEK293; 15.8 µM with SARS-CoV-2 [6]. Also, the Efficacy was 70.6% with SARS-CoV-2 [2] and 101.3% with SARS-CoV-2 [7]. Besides, the figures for the Emax in data set [3] and in data set [5] were 0% and 11.8%, respectively.

With `CC(Nc1nc(N2CCNCC2)nc2ccccc12)c1ccccc1N` (configuration not stated), the IC50 in the data set on SARS-CoV-2 [1] is 12.6 µM; in data set [4] (setting [8]) it was 39.8 µM; in the data set with Vero C1008, above 20 µM; in the data set on HEK293 it was above 57.5 µM. For the same compound, the Efficacy with SARS-CoV-2 [2] came to 70.2%; in the data set with SARS-CoV-2 [7], 31.5%. The Emax in [3] and in [5] was 0% each time.

Turning to `CC(Nc1nc(N2CCNCC2)nc2cc(-c3ccccc3)ccc12)c1ccccc1` (configuration not stated), the concentration for half-maximal inhibition (IC50) with SARS-CoV-2 [1] was found to be 4.47 µM; in data set [4] (setting [8]), 35.5 µM; in the data set on Vero C1008, 7.94 µM; in the data set on HEK293, 39.8 µM; with SARS-CoV-2 [6], 12.6 µM. In addition, the Emax is 96.7% in data set [3] and 116% in data set [5]. For the same compound, the Efficacy in the data set on SARS-CoV-2 [7] is 79%.

As for `CC(Nc1nc(N2CCNCC2)nc2ccc(-c3ccccc3)cc12)c1ccccc1` (configuration not stated), the IC50 was 7.94 µM in the data set on SARS-CoV-2 [1]; above 57.5 µM in data set [4] (setting [8]); 14.1 µM in the data set on Vero C1008; above 57.5 µM with HEK293; 15.8 µM in the data set on SARS-CoV-2 [6]. For the same compound, the Efficacy worked out at 100% with SARS-CoV-2 [2] and 81.6% in the data set with SARS-CoV-2 [7]. For the same compound, the Emax was 20.8% in [3] and 88.5% in [5].

With `CN1CCC[C@@H]1CCO[C@](C)(c1ccccc1)c1ccc(Cl)cc1.O=C(O)/C=C/C(=O)O` [CLEMASTINE FUMARATE], the IC50 entry in [4] is reported as “Not Active”.

Usually IC50 stands for the concentration that inhibits the measured activity by half.
